From article PMC11249646, “Small-Molecule Disruptors of the Interaction between Calcium- and Integrin-Binding Protein 1 and Integrin αIIbβ3 as Novel Antiplatelet Agents” (ACS Pharmacology & Translational Science, 2024)

biological target: T1, CIB1 and αIIb interaction (CIB1-GST : F-αIIb peptide) (Homo sapiens, UniProt Q99828); assay: FP assay, 1536-well qHTS format (primary and confirmatory screen); type: binding; details: confirmatory screen
T1 construct: made in house; host or cells: BL-21 plus RIL cells (E. coli)
T1 sequence (Q99828 1-191): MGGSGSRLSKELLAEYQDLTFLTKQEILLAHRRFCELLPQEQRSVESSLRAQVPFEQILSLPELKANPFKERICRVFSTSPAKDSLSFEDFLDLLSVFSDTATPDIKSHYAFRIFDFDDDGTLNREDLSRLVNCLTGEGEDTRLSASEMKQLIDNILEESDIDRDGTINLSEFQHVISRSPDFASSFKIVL

SMILES | CONFIRMATORY SCREEN Efficacy (%) | Efficacy (%) (confirmatory screen)
O=C1C=CC(=O)N1c1ccc(N2CCOCC2)cc1 [NCGC00373122-01] | -44 | –
CC1(C)C=CN2C(=O)C3=CCCN3C(=O)[C@@H]2C[C@@]12Nc1ccccc1C2=O [NCGC00380729-01] | – | -68
CC(=O)NC(Cc1c[nH]c2ccccc(=O)c12)C(=O)O (centres unmarked) [NCGC00381382-01] | – | -74

The remaining lines, values ahead:

CONFIRMATORY SCREEN Efficacy (%) | Efficacy (%) (confirmatory screen) | SMILES
– | -43 | C=C1C(=O)O[C@@H]2[C@H]3C(C)=CC(=O)C3=C(C)[C@@H](OC(=O)/C(C)=C\C)[C@H](O)[C@@H]12 [NCGC00380702-01]
– | -71 | C=C1C(OC(=O)/C(C)=C\C)[C@@]23CCC4[C@@](C)(CCC[C@@]4(C)C(=O)O)C2CC[C@H]1C3OC(C)=O (some centres unmarked) [NCGC00381205-01]
-21 | – | O=C(c1ccccc1)c1c(O)cc(O)cc1O[C@@H]1O[C@H](CO)[C@@H](O)[C@H](O)[C@H]1O [NCGC00384934-01]

same assay, conditions: confirmatory screen, YES/NO

SMILES | Confirm? (confirmatory screen)
CC1(C)C=CN2C(=O)C3=CCCN3C(=O)[C@@H]2C[C@@]12Nc1ccccc1C2=O [NCGC00380729-01] | YES
CC(=O)NC(Cc1c[nH]c2ccccc(=O)c12)C(=O)O (centres unmarked) [NCGC00381382-01] | YES

Next, values leading:

Confirm? (confirmatory screen) | SMILES
YES | C=C1C(=O)O[C@@H]2[C@H]3C(C)=CC(=O)C3=C(C)[C@@H](OC(=O)/C(C)=C\C)[C@H](O)[C@@H]12 [NCGC00380702-01]
YES | C=C1C(OC(=O)/C(C)=C\C)[C@@]23CCC4[C@@](C)(CCC[C@@]4(C)C(=O)O)C2CC[C@H]1C3OC(C)=O (some centres unmarked) [NCGC00381205-01]

same assay, conditions: confirmatory screen, qHTS curve class

CONFIRMATORY SCREEN Curve Class | SMILES
4 | O=C1C=CC(=O)N1c1ccc(N2CCOCC2)cc1 [NCGC00373122-01]
4 | O=C(c1ccccc1)c1c(O)cc(O)cc1O[C@@H]1O[C@H](CO)[C@@H](O)[C@H](O)[C@H]1O [NCGC00384934-01]

same assay, conditions: confirmatory screen, qHTS curve class; negative sign = inhibitory curve

SMILES | Curve Class (confirmatory screen)
CC1(C)C=CN2C(=O)C3=CCCN3C(=O)[C@@H]2C[C@@]12Nc1ccccc1C2=O [NCGC00380729-01] | -2.2
CC(=O)NC(Cc1c[nH]c2ccccc(=O)c12)C(=O)O (centres unmarked) [NCGC00381382-01] | -2.2

More lines, now with the values ahead:

Curve Class (confirmatory screen) | SMILES
-1.2 | C=C1C(=O)O[C@@H]2[C@H]3C(C)=CC(=O)C3=C(C)[C@@H](OC(=O)/C(C)=C\C)[C@H](O)[C@@H]12 [NCGC00380702-01]
-2.2 | C=C1C(OC(=O)/C(C)=C\C)[C@@]23CCC4[C@@](C)(CCC[C@@]4(C)C(=O)O)C2CC[C@H]1C3OC(C)=O (some centres unmarked) [NCGC00381205-01]

same assay, conditions: confirmatory screen; read-out: IC50 [μM] (confirmatory screen)

IC50 [µM] | SMILES
1.6 | C=C1C(=O)O[C@@H]2[C@H]3C(C)=CC(=O)C3=C(C)[C@@H](OC(=O)/C(C)=C\C)[C@H](O)[C@@H]12 [NCGC00380702-01]
31.6 | C=C1C(OC(=O)/C(C)=C\C)[C@@]23CCC4[C@@](C)(CCC[C@@]4(C)C(=O)O)C2CC[C@H]1C3OC(C)=O (some centres unmarked) [NCGC00381205-01]
44.7 | CC(=O)NC(Cc1c[nH]c2ccccc(=O)c12)C(=O)O (centres unmarked) [NCGC00381382-01]

same assay, conditions: qHTS FP screen hits, Table S2; negative = inhibition

SMILES | Efficacy (%)
CC1(C)C=CN2C(=O)C3=CCCN3C(=O)[C@@H]2C[C@@]12Nc1ccccc1C2=O [NCGC00380729-01] | -42
CC(=O)NC(Cc1c[nH]c2ccccc(=O)c12)C(=O)O (centres unmarked) [NCGC00381382-01] | -50

Now from value to molecule:

Efficacy (%) | SMILES
-35 | C=C1C(=O)O[C@@H]2[C@H]3C(C)=CC(=O)C3=C(C)[C@@H](OC(=O)/C(C)=C\C)[C@H](O)[C@@H]12 [NCGC00380702-01]
-30 | C=C1C(OC(=O)/C(C)=C\C)[C@@]23CCC4[C@@](C)(CCC[C@@]4(C)C(=O)O)C2CC[C@H]1C3OC(C)=O (some centres unmarked) [NCGC00381205-01]
-29 | O=C(c1ccccc1)c1c(O)cc(O)cc1O[C@@H]1O[C@H](CO)[C@@H](O)[C@H](O)[C@H]1O [NCGC00384934-01]

same assay, conditions: qHTS FP screen hits, Table S2; one class per curve where COUNT > 1; negative sign = inhibitory curve

SMILES | Curve Class
CC1(C)C=CN2C(=O)C3=CCCN3C(=O)[C@@H]2C[C@@]12Nc1ccccc1C2=O [NCGC00380729-01] | -2.2
CC(=O)NC(Cc1c[nH]c2ccccc(=O)c12)C(=O)O (centres unmarked) [NCGC00381382-01] | -2.2

The next lines start with the values.

Curve Class | SMILES
-1.2 | C=C1C(=O)O[C@@H]2[C@H]3C(C)=CC(=O)C3=C(C)[C@@H](OC(=O)/C(C)=C\C)[C@H](O)[C@@H]12 [NCGC00380702-01]
-2.2 | C=C1C(OC(=O)/C(C)=C\C)[C@@]23CCC4[C@@](C)(CCC[C@@]4(C)C(=O)O)C2CC[C@H]1C3OC(C)=O (some centres unmarked) [NCGC00381205-01]
-1.2 | O=C(c1ccccc1)c1c(O)cc(O)cc1O[C@@H]1O[C@H](CO)[C@@H](O)[C@H](O)[C@H]1O [NCGC00384934-01]

same assay, conditions: qHTS FP screen hits, Table S2; read-out: IC50

SMILES | IC50 [µM]
CC1(C)C=CN2C(=O)C3=CCCN3C(=O)[C@@H]2C[C@@]12Nc1ccccc1C2=O [NCGC00380729-01] | 44.7
CC(=O)NC(Cc1c[nH]c2ccccc(=O)c12)C(=O)O (centres unmarked) [NCGC00381382-01] | 50.1

The next lines start with the values.

IC50 [µM] | SMILES
3.5 | C=C1C(=O)O[C@@H]2[C@H]3C(C)=CC(=O)C3=C(C)[C@@H](OC(=O)/C(C)=C\C)[C@H](O)[C@@H]12 [NCGC00380702-01]
20 | C=C1C(OC(=O)/C(C)=C\C)[C@@]23CCC4[C@@](C)(CCC[C@@]4(C)C(=O)O)C2CC[C@H]1C3OC(C)=O (some centres unmarked) [NCGC00381205-01]
25.1 | O=C(c1ccccc1)c1c(O)cc(O)cc1O[C@@H]1O[C@H](CO)[C@@H](O)[C@H](O)[C@H]1O [NCGC00384934-01]

same assay, conditions: qHTS primary screen hits, Table S2; negative = inhibition

Efficacy (%) | SMILES
-33 | O=C1C=CC(=O)N1c1ccc(N2CCOCC2)cc1 [NCGC00373122-01]

same assay, conditions: qHTS primary screen hits, Table S2; negative sign = inhibitory curve; several classes where COUNT > 1

Curve Class | SMILES
-2.4 | O=C1C=CC(=O)N1c1ccc(N2CCOCC2)cc1 [NCGC00373122-01]

same assay, conditions: qHTS primary screen hits, Table S2; read-out: IC50

IC50 [µM] | SMILES
28.2 | O=C1C=CC(=O)N1c1ccc(N2CCOCC2)cc1 [NCGC00373122-01]

biological target: T2, GST-CIB1 : F-scrambled peptide (Homo sapiens, UniProt Q99828); assay: FP scrambled-peptide counter screen, 1536-well format; type: binding; details: counterscreen
T2 construct: made in house; host or cells: BL-21 plus RIL cells (E. coli)
T2 sequence (Q99828 1-191): T1 sequence (Q99828 1-191)

SMILES | COUNTERSCREEN Efficacy (%) | Efficacy (%) (counterscreen)
O=C1C=CC(=O)N1c1ccc(N2CCOCC2)cc1 [NCGC00373122-01] | -8 | –
CC1(C)C=CN2C(=O)C3=CCCN3C(=O)[C@@H]2C[C@@]12Nc1ccccc1C2=O [NCGC00380729-01] | – | -55
CC(=O)NC(Cc1c[nH]c2ccccc(=O)c12)C(=O)O (centres unmarked) [NCGC00381382-01] | – | -85

The remaining lines, values ahead:

COUNTERSCREEN Efficacy (%) | Efficacy (%) (counterscreen) | SMILES
– | -39 | C=C1C(=O)O[C@@H]2[C@H]3C(C)=CC(=O)C3=C(C)[C@@H](OC(=O)/C(C)=C\C)[C@H](O)[C@@H]12 [NCGC00380702-01]
– | -31 | C=C1C(OC(=O)/C(C)=C\C)[C@@]23CCC4[C@@](C)(CCC[C@@]4(C)C(=O)O)C2CC[C@H]1C3OC(C)=O (some centres unmarked) [NCGC00381205-01]
-31 | – | O=C(c1ccccc1)c1c(O)cc(O)cc1O[C@@H]1O[C@H](CO)[C@@H](O)[C@H](O)[C@H]1O [NCGC00384934-01]

same assay, conditions: counterscreen, qHTS curve class

COUNTERSCREEN Curve Class | SMILES
4 | O=C1C=CC(=O)N1c1ccc(N2CCOCC2)cc1 [NCGC00373122-01]
4 | O=C(c1ccccc1)c1c(O)cc(O)cc1O[C@@H]1O[C@H](CO)[C@@H](O)[C@H](O)[C@H]1O [NCGC00384934-01]

same assay, conditions: counterscreen, qHTS curve class; negative sign = inhibitory curve

SMILES | Curve Class (counterscreen)
CC1(C)C=CN2C(=O)C3=CCCN3C(=O)[C@@H]2C[C@@]12Nc1ccccc1C2=O [NCGC00380729-01] | -2.2
CC(=O)NC(Cc1c[nH]c2ccccc(=O)c12)C(=O)O (centres unmarked) [NCGC00381382-01] | -2.2

Second part, the molecule after the results:

Curve Class (counterscreen) | SMILES
-1.2 | C=C1C(=O)O[C@@H]2[C@H]3C(C)=CC(=O)C3=C(C)[C@@H](OC(=O)/C(C)=C\C)[C@H](O)[C@@H]12 [NCGC00380702-01]
-1.4 | C=C1C(OC(=O)/C(C)=C\C)[C@@]23CCC4[C@@](C)(CCC[C@@]4(C)C(=O)O)C2CC[C@H]1C3OC(C)=O (some centres unmarked) [NCGC00381205-01]

same assay, conditions: counterscreen; read-out: IC50 [μM] (counterscreen)

SMILES | IC50 [µM]
CC1(C)C=CN2C(=O)C3=CCCN3C(=O)[C@@H]2C[C@@]12Nc1ccccc1C2=O [NCGC00380729-01] | 39.8
CC(=O)NC(Cc1c[nH]c2ccccc(=O)c12)C(=O)O (centres unmarked) [NCGC00381382-01] | 89.1

Second part, the molecule after the results:

IC50 [µM] | SMILES
1.6 | C=C1C(=O)O[C@@H]2[C@H]3C(C)=CC(=O)C3=C(C)[C@@H](OC(=O)/C(C)=C\C)[C@H](O)[C@@H]12 [NCGC00380702-01]
8.9 | C=C1C(OC(=O)/C(C)=C\C)[C@@]23CCC4[C@@](C)(CCC[C@@]4(C)C(=O)O)C2CC[C@H]1C3OC(C)=O (some centres unmarked) [NCGC00381205-01]
